Laboratory results reported in ChEMBL document CHEMBL3991601, “The target landscape of clinical kinase drugs” (Science, 2017).
Calls of active or inactive are those of the source.

Assays:
[1] = biological target: Glycogen synthase kinase-3 beta (Homo sapiens, UniProt P49841)
[2] = biological target: Mitogen-activated protein kinase 1 (Homo sapiens, UniProt P28482)
[3] = biological target: T1, Serine/threonine-protein kinase NLK (Homo sapiens, UniProt Q9UBE8)
T1 sequence (Q9UBE8 whole entry): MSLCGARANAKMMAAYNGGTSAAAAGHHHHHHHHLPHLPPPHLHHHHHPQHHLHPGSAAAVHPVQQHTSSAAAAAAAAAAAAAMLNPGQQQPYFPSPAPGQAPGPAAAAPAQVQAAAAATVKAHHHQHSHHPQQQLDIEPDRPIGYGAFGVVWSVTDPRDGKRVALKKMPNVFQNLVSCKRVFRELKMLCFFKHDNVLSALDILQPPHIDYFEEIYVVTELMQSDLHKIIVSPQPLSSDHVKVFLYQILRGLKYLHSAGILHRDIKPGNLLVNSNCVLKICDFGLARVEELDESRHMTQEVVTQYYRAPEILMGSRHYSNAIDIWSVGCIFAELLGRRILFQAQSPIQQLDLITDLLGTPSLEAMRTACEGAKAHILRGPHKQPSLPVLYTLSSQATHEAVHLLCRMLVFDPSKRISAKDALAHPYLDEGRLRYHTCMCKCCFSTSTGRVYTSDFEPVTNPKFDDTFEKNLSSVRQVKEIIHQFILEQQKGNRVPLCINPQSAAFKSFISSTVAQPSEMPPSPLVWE

[4] = biological target: T2, cGMP-dependent protein kinase 1 (Homo sapiens, UniProt Q13976)
T2 sequence (Q13976 whole entry): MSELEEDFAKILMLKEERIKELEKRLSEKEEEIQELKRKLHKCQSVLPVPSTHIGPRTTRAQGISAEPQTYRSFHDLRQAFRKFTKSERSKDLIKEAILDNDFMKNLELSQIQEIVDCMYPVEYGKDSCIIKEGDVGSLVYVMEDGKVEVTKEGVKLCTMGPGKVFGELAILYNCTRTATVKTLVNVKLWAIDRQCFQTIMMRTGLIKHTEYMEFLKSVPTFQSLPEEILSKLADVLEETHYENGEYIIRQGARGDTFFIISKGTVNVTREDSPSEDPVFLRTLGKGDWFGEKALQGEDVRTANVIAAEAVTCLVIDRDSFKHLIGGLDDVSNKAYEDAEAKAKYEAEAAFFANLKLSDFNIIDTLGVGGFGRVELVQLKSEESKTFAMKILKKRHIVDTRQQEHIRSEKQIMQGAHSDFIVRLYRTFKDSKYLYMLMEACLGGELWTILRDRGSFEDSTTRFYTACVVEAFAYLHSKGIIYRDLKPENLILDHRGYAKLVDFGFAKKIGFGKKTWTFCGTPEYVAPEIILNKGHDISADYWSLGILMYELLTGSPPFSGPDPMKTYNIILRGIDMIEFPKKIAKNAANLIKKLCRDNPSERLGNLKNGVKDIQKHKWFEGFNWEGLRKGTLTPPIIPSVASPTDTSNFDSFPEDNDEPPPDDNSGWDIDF

[5] = biological target: 26S proteasome regulatory subunit 6B (Homo sapiens, UniProt P43686)
26S proteasome regulatory subunit 6B, sequence (P43686 whole entry): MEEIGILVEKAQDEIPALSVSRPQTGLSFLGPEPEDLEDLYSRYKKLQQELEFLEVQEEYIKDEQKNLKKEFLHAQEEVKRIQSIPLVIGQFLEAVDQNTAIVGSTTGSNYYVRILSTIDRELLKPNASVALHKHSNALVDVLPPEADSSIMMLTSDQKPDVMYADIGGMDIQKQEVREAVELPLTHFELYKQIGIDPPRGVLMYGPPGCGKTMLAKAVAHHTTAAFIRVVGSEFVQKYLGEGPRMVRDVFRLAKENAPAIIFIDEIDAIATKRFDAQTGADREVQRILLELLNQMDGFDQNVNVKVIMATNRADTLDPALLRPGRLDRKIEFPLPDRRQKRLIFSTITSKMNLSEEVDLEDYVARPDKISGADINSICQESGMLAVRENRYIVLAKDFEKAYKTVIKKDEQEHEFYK

[6] = biological target: T3, Structural maintenance of chromosomes protein 1A (Homo sapiens, UniProt Q14683)
T3 sequence (Q14683 whole entry): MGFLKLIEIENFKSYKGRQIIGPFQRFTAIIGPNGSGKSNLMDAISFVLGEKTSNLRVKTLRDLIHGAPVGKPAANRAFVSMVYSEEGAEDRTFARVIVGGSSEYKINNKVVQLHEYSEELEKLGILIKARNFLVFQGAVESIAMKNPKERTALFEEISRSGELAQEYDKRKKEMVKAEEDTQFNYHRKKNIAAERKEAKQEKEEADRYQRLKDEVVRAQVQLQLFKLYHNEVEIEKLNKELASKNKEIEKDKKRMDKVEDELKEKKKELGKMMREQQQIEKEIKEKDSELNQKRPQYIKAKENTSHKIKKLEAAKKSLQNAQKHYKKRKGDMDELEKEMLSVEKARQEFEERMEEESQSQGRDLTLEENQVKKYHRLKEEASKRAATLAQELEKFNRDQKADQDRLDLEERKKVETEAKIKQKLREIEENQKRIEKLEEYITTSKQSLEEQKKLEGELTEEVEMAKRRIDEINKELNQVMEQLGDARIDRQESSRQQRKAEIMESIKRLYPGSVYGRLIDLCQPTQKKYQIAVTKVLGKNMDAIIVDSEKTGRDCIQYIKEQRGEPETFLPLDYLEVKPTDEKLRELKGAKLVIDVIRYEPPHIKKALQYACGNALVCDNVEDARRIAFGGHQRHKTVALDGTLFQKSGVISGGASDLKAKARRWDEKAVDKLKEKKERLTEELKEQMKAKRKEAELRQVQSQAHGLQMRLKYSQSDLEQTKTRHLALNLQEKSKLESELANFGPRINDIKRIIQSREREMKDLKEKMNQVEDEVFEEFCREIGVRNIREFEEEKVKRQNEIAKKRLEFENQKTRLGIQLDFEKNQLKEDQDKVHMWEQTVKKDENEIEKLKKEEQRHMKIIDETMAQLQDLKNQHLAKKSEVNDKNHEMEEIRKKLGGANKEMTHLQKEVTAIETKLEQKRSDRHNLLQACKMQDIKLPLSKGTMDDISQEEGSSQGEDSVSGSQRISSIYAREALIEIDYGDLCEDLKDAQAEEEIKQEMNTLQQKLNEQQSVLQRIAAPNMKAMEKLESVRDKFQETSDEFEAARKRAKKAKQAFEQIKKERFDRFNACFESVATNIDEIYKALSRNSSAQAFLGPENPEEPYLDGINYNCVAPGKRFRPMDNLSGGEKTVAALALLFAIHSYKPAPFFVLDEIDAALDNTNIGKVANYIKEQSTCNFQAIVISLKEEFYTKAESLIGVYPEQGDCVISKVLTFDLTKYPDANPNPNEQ

Wee1-like protein kinase = Wee1-like protein kinase (Homo sapiens, UniProt P30291)
Wee1-like protein kinase, sequence (P30291 whole entry): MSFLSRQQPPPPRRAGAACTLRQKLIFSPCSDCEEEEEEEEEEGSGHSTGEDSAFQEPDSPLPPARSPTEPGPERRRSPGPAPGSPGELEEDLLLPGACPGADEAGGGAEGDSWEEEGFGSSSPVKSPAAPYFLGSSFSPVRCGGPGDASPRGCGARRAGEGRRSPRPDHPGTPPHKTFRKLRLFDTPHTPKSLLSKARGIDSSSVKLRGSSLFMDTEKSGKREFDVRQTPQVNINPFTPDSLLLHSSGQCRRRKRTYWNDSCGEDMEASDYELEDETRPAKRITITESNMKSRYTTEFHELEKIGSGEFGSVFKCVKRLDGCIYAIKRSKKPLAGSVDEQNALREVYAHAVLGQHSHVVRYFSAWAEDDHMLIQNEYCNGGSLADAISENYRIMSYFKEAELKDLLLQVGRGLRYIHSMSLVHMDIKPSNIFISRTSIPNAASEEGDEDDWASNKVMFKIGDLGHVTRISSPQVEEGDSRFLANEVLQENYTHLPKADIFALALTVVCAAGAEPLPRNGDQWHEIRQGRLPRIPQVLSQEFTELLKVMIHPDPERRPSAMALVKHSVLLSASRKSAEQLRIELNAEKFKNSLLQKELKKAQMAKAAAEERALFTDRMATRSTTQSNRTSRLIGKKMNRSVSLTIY

Measured: Kd
Note: in the data inactive means no Kd found up to 30 µM.

Glycogen synthase kinase-3 beta, sequence (P49841 whole entry): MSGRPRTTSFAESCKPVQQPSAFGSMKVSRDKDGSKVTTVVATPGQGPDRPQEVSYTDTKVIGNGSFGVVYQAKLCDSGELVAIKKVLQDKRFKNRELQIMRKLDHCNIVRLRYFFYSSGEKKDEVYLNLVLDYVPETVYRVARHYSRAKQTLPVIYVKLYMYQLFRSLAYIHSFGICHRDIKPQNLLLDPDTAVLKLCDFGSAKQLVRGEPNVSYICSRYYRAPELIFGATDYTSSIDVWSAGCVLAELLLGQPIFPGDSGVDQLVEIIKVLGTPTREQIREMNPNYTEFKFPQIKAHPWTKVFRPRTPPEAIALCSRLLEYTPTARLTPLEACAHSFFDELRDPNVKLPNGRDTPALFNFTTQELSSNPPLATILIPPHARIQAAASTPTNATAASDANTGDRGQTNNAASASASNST
Mitogen-activated protein kinase 1, sequence (P28482 whole entry): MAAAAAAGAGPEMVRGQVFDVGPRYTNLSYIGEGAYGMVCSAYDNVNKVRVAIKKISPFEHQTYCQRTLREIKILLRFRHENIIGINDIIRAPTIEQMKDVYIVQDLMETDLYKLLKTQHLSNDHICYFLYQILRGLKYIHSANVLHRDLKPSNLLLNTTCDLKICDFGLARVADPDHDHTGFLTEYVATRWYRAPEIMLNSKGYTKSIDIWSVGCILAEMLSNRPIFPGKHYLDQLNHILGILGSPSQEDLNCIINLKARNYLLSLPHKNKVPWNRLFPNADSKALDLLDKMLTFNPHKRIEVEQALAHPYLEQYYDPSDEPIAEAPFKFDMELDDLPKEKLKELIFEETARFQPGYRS

CC[C@@H]1C(=O)N(C)c2cnc(Nc3ccc(C(=O)N[C@H]4CC[C@H](N5CCN(CC6CC6)CC5)CC4)cc3OC)nc2N1C(C)C [VOLASERTIB]
inactive: [1] > 30 µM | [2] > 30 µM | [3] > 30 µM | [4] > 30 µM | [5] > 30 µM | [6] > 30 µM | Wee1-like protein kinase > 30 µM

Cc1ccc(S(=O)(=O)Nc2nc3ccccc3nc2Nc2ccc3nsnc3c2)cc1
inactive: [1] > 30 µM | [2] > 30 µM | [3] > 30 µM | [4] > 30 µM | [5] > 30 µM | [6] > 30 µM | Wee1-like protein kinase > 30 µM

Cn1cc(-c2ccc(F)c(C(F)(F)F)c2)nc1C1CCN(c2ncnc3[nH]ncc23)CC1 [LY-2584702]
inactive: [2] > 30 µM | [3] > 30 µM | [4] > 30 µM | [5] > 30 µM | Wee1-like protein kinase > 30 µM

COc1cc(OC)c(/C=C/S(=O)(=O)Cc2ccc(OC)c(NCC(=O)O)c2)c(OC)c1 [RIGOSERTIB]
inactive: [1] > 30 µM | [2] > 30 µM | [3] > 30 µM | [4] > 30 µM | [5] > 30 µM | [6] > 30 µM | Wee1-like protein kinase > 30 µM

CCn1c(=O)c(-c2cc[nH]n2)cc2c(C)nc(N)nc21 [VOXTALISIB]
inactive: [1] > 30 µM | [2] > 30 µM | [3] > 30 µM | [4] > 30 µM | [5] > 30 µM | [6] > 30 µM | Wee1-like protein kinase > 30 µM

OCCn1cc(-c2cnc3nnn(Cc4ccc5ncccc5c4)c3n2)cn1 [PF-04217903]
inactive: [2] > 30 µM | [3] > 30 µM | [4] > 30 µM | [5] > 30 µM | Wee1-like protein kinase > 30 µM

CCn1c(-c2nonc2N)nc2c(C#CC(C)(C)O)ncc(OC[C@H]3CCCNC3)c21 [GSK-690693]
inactive: [5] > 30 µM | [6] > 30 µM

Cc1cc(Nc2cc(N3CCN(C)CC3)nc(/C=C/c3ccccc3)n2)n[nH]1 [ENMD-2076]
inactive: [3] > 30 µM | [5] > 30 µM | [6] > 30 µM | Wee1-like protein kinase > 30 µM

CNC(=O)c1ccc(-c2cnc3ncc(Cc4ccc5ncccc5c4)n3n2)cc1F [CAPMATINIB]
inactive: [2] > 30 µM | [3] > 30 µM | [4] > 30 µM | [5] > 30 µM | [6] > 30 µM | Wee1-like protein kinase > 30 µM

O=C1NC(=O)/C(=C/c2ccc3nccc(-c4ccncc4)c3c2)S1 [GSK-1059615]
inactive: [1] > 30 µM | [2] > 30 µM | [4] > 30 µM | [5] > 30 µM | [6] > 30 µM | Wee1-like protein kinase > 30 µM

Nc1nc(N)c2nc(-c3cccc(O)c3)c(-c3cccc(O)c3)nc2n1 [TG100-115]
inactive: [5] > 30 µM

CN1CCN(c2ccc3nc(-c4c(N)c5c(F)cccc5[nH]c4=O)[nH]c3c2)CC1 [DOVITINIB]
inactive: [5] > 30 µM | [6] > 30 µM

O=C(Nc1cccc(Cl)c1)Nc1ncc(CCNc2ncnc3ccsc23)s1 [SNS-314]
inactive: [5] > 30 µM | [6] > 30 µM | Wee1-like protein kinase > 30 µM

COc1cc(N2CCC(N3CCN(C)CC3)CC2)ccc1Nc1ncnc(Nc2ccccc2S(=O)(=O)C(C)C)n1 [ASP-3026]
inactive: [1] > 30 µM | [2] > 30 µM | [3] > 30 µM | [4] > 30 µM | [5] > 30 µM | Wee1-like protein kinase > 30 µM

Cc1nc(N)sc1-c1ccnc(Nc2ccc(N3CCOCC3)cc2)n1 [CYC-116]
inactive: [5] > 30 µM | [6] > 30 µM

CC(C)Nc1cc(-c2c[nH]c(C(=O)N[C@H](CO)c3cccc(Cl)c3)c2)c(Cl)cn1 [ULIXERTINIB]
inactive: [1] > 30 µM | [3] > 30 µM | [4] > 30 µM | [5] > 30 µM | [6] > 30 µM | Wee1-like protein kinase > 30 µM

O=c1sn(-c2cccc3ccccc23)c(=O)n1Cc1ccccc1 [TIDEGLUSIB]
inactive: [2] > 30 µM | [3] > 30 µM | [4] > 30 µM | [5] > 30 µM | [6] > 30 µM | Wee1-like protein kinase > 30 µM

Cc1cn(-c2cc(NC(=O)c3ccc(C)c(Nc4nccc(-c5cccnc5)n4)c3)cc(C(F)(F)F)c2)cn1 [NILOTINIB]
inactive: [5] > 30 µM | [6] > 30 µM

CN1N=C(N)c2cn([C@@H]3O[C@H](COP(=O)(O)O)[C@@H](O)[C@H]3O)c3ncnc1c23 [TRICIRIBINE PHOSPHATE]
inactive: [1] > 30 µM | [2] > 30 µM | [4] > 30 µM | [5] > 30 µM | [6] > 30 µM | Wee1-like protein kinase > 30 µM
